From ChEMBL document CHEMBL5108044, “Discovery of a Novel Potent STAT3 Inhibitor HP590 with Dual p-Tyr705/Ser727 Inhibitory Activity for Gastric Cancer Treatment” (J Med Chem, 2022)
The source made the active and inactive calls. The rule behind the calls is not given here.

Assays:
[1] = tested on: AGS; assay: Induction of apoptosis in human AGS cells assessed as early apoptic cells 20 nM incubated for 48 hrs by FITC-annexin V/propidium iodide staining based flow cytometry (reference value: 0.55%); format: functional
[2] = molecular target: T1, Signal transducer and activator of transcription 3 (Homo sapiens, UniProt P40763); assay: Inhibition of STAT3 phosphorylation at Tyr705 residue in human MKN-45 cells incubated upto 24 hrs by Western blotting analysis; format: cell-based; details: dose <= 40.0 nM, DDE = dose-dependent effect
T1 sequence (P40763 whole entry): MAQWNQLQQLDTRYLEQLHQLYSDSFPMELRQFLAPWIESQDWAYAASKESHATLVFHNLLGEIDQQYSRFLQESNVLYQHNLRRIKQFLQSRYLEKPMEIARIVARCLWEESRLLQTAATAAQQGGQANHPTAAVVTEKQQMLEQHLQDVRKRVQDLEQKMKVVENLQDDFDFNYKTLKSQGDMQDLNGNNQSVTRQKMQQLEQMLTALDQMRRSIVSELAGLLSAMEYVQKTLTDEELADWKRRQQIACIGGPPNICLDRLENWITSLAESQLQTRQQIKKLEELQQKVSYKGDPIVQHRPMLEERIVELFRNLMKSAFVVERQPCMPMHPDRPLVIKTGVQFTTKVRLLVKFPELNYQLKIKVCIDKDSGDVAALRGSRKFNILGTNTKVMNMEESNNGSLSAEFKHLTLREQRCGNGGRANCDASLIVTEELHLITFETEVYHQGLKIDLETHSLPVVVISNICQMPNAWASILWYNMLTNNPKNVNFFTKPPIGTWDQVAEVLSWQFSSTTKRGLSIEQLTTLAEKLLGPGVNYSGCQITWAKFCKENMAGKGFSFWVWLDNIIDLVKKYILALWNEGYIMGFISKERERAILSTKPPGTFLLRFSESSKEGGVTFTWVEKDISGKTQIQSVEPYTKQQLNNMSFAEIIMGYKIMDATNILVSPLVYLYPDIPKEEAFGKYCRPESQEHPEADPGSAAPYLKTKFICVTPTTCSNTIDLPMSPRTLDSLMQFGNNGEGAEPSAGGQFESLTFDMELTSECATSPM

[3] = tested on: MKN-45; assay: Antiproliferative activity against human MKN-45 cells assessed as cell viability incubated for 72 hrs by MTS assay; format: functional, cell-based; details: dose <= 100.0 nM, DDE = dose-dependent effect
[4] = tested on: MGC-803; assay: Antiproliferative activity against human MGC-803 cells assessed as reduction in cell viability incubated for 72 hrs by MTS assay; format: functional, cell-based; details: MGC-803, 72 h
[5] = tested on: AGS; assay: Induction of apoptosis in human AGS cells assessed as necrotic cells 5 nM incubated for 48 hrs by FITC-annexin V/propidium iodide staining based flow cytometry (reference value: 2.70%); format: functional
[6] = molecular target: T1, Signal transducer and activator of transcription 3; assay: Binding affinity to human STAT3 transfected in MKN-45 cells assessed as change in melting temperature at 5 uM by thermal shift assay; format: cell-based
[7] = tested on: MKN-45; assay: Induction of apoptosis in human MKN-45 cells assessed as late apoptic cells 20 nM incubated for 48 hrs by FITC-annexin V/propidium iodide staining based flow cytometry (reference value: 17.9%); format: functional
[8] = molecular target: T1, Signal transducer and activator of transcription 3; assay: Inhibition of STAT3 in human MGC-803 cells assessed as downregulation of cyclin D1 expression incubated up to 24 hrs by western blot analysis; format: cell-based; details: dose <= 40.0 nM, DDE = dose-dependent effect
[9] = tested on: MKN-45; assay: Inhibition of mitochondrial respiration in STAT3 knockdown human MKN-45 cells assessed as maximal oxygen consumption rate incubated for 80 mins […]; format: functional, cell-based
[10] = molecular target: T1, Signal transducer and activator of transcription 3; assay: Inhibition of STAT3 in human MKN-45 cells assessed as downregulation of cyclin D1 expression incubated up to 24 hrs by western blot analysis; format: cell-based; details: dose <= 40.0 nM, DDE = dose-dependent effect
[11] = AUC (0 to infinity) in ICR mouse plasma at 10 mg/kg, po measured up to 24 hrs by LC-MS/MS analysis; format: ADME, organism-based; set-up: dose 10 mg/kg, time < 24 hrs, route po
[12] = Toxicity in BALB/c nude mouse xenografted with human MKN-45 cells assessed as heart damage at 25 to 50 mg/kg, po qd administered for 5 weeks by H and E staining based analysis; format: organism-based; details: in vivo, 840 h, dose 25-50 mg/kg
[13] = Toxicity in BALB/c nude mouse xenografted with human MKN-45 cells assessed as spleen damage at 25 to 50 mg/kg, po qd administered for 5 weeks by H and E staining based analysis; format: organism-based; details: in vivo, 840 h, dose 25-50 mg/kg
[14] = molecular target: T1, Signal transducer and activator of transcription 3; assay: Inhibition of IL-6 induced STAT3 phosphorylation at Tyr705 residue in human MKN-45 cells at 40 nM preincubated for 24 hrs followed by IL-6 stimulation and measured after 30 min by Western blotting analysis; format: cell-based; details: time 24.5 hrs
[15] = tested on: MKN-45; assay: Induction of apoptosis in human MKN-45 cells assessed as viable cells at 20 nM incubated for 48 hrs by FITC-annexin V/propidium iodide staining based flow cytometry (reference value: 68%); format: functional; details: read-out: Activity
[16] = molecular target: Cytochrome P450 2C9 (Homo sapiens, UniProt P11712); assay: Inhibition of CYP2C9 in human liver microsome; format: ADME, microsomes
Chain of Cytochrome P450 2C9 (P11712 whole entry): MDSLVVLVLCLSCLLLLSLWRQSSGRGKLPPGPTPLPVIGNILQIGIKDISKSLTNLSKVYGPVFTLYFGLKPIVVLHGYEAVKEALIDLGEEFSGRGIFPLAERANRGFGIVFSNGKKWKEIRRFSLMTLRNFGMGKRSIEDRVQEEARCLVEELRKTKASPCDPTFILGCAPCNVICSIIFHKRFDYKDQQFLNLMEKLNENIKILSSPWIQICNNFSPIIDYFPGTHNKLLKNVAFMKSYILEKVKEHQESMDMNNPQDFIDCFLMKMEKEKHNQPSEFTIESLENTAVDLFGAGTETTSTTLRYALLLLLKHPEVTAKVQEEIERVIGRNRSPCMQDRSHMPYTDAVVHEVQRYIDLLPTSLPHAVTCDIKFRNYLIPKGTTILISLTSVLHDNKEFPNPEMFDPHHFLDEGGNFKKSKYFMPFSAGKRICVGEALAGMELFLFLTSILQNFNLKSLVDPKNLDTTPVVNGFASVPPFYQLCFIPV

[17] = Toxicity in […] mouse xenografted with human MKN-45 cells assessed as liver damage at 25 to 50 mg/kg, po qd administered for 5 weeks by H and E staining based analysis; format: organism-based; details: in vivo, 840 h, dose 25-50 mg/kg
[18] = tested on: AGS; assay: Antiproliferative activity against human AGS cells assessed as cell viability incubated for 72 hrs by MTS assay; format: functional, cell-based; details: dose <= 100.0 nM, DDE = dose-dependent effect
[19] = tested on: MKN-45; assay: Induction of apoptosis in human MKN-45 cells assessed as late apoptic cells 10 nM incubated for 48 hrs by FITC-annexin V/propidium iodide staining based flow cytometry (reference value: 17.9%); format: functional
[20] = tested on: MKN-45; assay: Induction of apoptosis in human MKN-45 cells assessed as necrotic cells 5 nM incubated for 48 hrs by FITC-annexin V/propidium iodide staining based flow cytometry (reference value: 10.3%); format: functional
[21] = tested on: MKN-45; assay: In vivo inhibition of STAT3 phosphorylation at Ser727 residue in human MKN-45 cells xenografted in BALB/c nude mouse at 25 to 50 mg/kg, po qd administered for 5 weeks by immunohistochemical analysis; format: functional, organism-based; details: dose 25-50 mg/kg
[22] = tested on: AGS; assay: Induction of apoptosis in human AGS cells assessed as early apoptic cells 5 nM incubated for 48 hrs by FITC-annexin V/propidium iodide staining based flow cytometry (reference value: 0.55%); format: functional
[23] = tested on: MKN-45; assay: Antitumor activity against human MKN-45 cells xenografted in BALB/c nude mouse assessed as reduction in Ki67 gene expression at 25 to 50 mg/kg, po qd administered for 5 weeks immunohistochemical analysis; format: functional, organism-based; details: dose 25-50 mg/kg
[24] = tested on: MKN-45; assay: In vivo inhibition of STAT3 in human MKN-45 cells xenografted in BALB/c nude mouse assessed as reduction in c-myc gene expression at 25 to 50 mg/kg, po qd administered for 5 weeks by Western blot analysis; format: functional, organism-based; details: dose 25-50 mg/kg
[25] = AUC (0 to infinity) in ICR mouse plasma at 1 mg/kg, iv measured up to 24 hrs by LC-MS/MS analysis; format: ADME, organism-based; set-up: time < 24 hrs, dose 1 mg/kg, route iv
[26] = tested on: MKN-45; assay: Induction of apoptosis in human MKN-45 cells assessed as necrotic cells 20 nM incubated for 48 hrs by FITC-annexin V/propidium iodide staining based flow cytometry (reference value: 10.3%); format: functional
[27] = molecular target: T1, Signal transducer and activator of transcription 3; assay: Inhibition of STAT3 phosphorylation at Ser727 residue in human MGC-803 cells upto 40 nM incubated upto 24 hrs by Western blotting analysis; format: cell-based
[28] = tested on: AGS; assay: Inhibition of colony formation in human AGS cells assessed as reduction in number of colonies incubated for 5 to 7 days by crystal violet staining based assay; format: functional, cell-based; details: dose <= 20.0 nM, time 5-7 day, DDE = dose-dependent effect
[29] = Oral bioavailability in ICR mouse plasma at 10 mg/kg measured up to 24 hrs by LC-MS/MS analysis; format: ADME, organism-based
[30] = Cmax in ICR mouse plasma at 10 mg/kg, po measured up to 24 hrs by LC-MS/MS analysis; format: ADME, organism-based; set-up: dose 10 mg/kg, time < 24 hrs, route po
[31] = molecular target: T1, Signal transducer and activator of transcription 3; assay: Inhibition of STAT3 in human AGS cells assessed as downregulation of c-myc expression at 10 to 40 nM incubated for 24 hrs by RT-PCR analysis; format: cell-based; details: dose 10-40 nM
[32] = Elimination half life in ICR mouse plasma at 10 mg/kg, po measured up to 24 hrs by LC-MS/MS analysis; format: ADME, organism-based; details: read-out: beta t1/2 (converted)
[33] = Inhibition of ATP production in human MKN-45 cells incubated for 20 to 24 hrs by ATP assay kit method; format: functional, cell-based
[34] = tested on: AGS; assay: Antiproliferative activity against human AGS cells assessed as reduction in cell viability incubated for 72 hrs by MTS assay; format: functional, cell-based
[35] = molecular target: T1, Signal transducer and activator of transcription 3; assay: Inhibition of STAT3 in human MKN-45 cells assessed as downregulation of Bcl2 expression at 10 to 40 nM incubated for 24 hrs by RT-PCR analysis; format: cell-based; details: dose 10-40 nM
[36] = tested on: MGC-803; assay: Inhibition of colony formation in human MGC-803 cells assessed as reduction in number of colonies incubated for 5 to 7 days by crystal violet staining based assay; format: functional, cell-based; details: dose <= 20.0 nM, time 5-7 day, DDE = dose-dependent effect

inhibition [2]: Dde
IC50 [4]: 0.0087 µM
Activity [6]: Active
inhibition [8]: Dde
inhibition [10]: Dde
AUC(0-inf) [11]: 15500 ng·h/mL
inhibition [14]: Active
IC50 [16]: 22.9 µM
AUC(0-inf) [25]: 2270 ng·h/mL
inhibition [27]: 100%
bioavailability [29]: 54.4%
Cmax [30]: 529 ng/mL
inhibition [31]: Active
half-life [32]: 16 h
IC50 [33]: 0.0247 µM
IC50 [34]: 0.0135 µM
inhibition [35]: Active
SMILES: O=C(c1ccc(-c2noc(-c3ccc(C(F)(F)F)cc3)n2)cc1)N1CCN(Cc2ccc(OCC(F)(F)F)cc2)CC1
Activity [1]: 3.8%
Activity [3]: Dde
Activity [5]: 3.96%
Activity [7]: 22%
inhibition [9]: Active
Activity [12]: Non-Toxic
Activity [13]: Non-Toxic
viability at 0.02 µM [15]: 60.7%
Activity [17]: Non-Toxic
Activity [18]: Dde
Activity [19]: 19.6%
Activity [20]: 8.54%
inhibition [21]: Active
Activity [22]: 2.7%
Activity [23]: Active
inhibition [24]: Active
Activity [26]: 11.3%
inhibition [28]: Dde
inhibition [36]: Dde
